This passage reports inhibition and EC50 results from patent US9238039B2, “Pyrazolo[1,5-A]pyrimidines for antiviral treatment” (Gilead Sciences, Inc., priority 2010, dated 2016).

The structures appear in SMILES notation.

The assay has as its system RSV strain A2. Description: RSV antiviral cytoprotection assay in Hep2 cells (96-well and 384-well format, Cell TiterGlo read-out). The following applies: for inhibition at 0.5 µM: HEp-2, 0.5 uM; for inhibition at 0.5 µM / inhibition at 1 µM: RSV-induced cytopathic effect in Hep2 cells, calculated from fitted dose response curve, normalized to 0% and 100%; for EC50: Hep2 cells, class symbols; for inhibition at 1 µM: HEp-2, 1 uM. The format is cell-based, Respiratory Syncytial Virus (RSV).

Where [1] appears, read: human respiratory syncytial virus.
Where [2] appears, read: human respiratory syncytial virus, HEp-2, RSV-induced cytopathic effects.

As usually defined, the inhibition is the percentage by which the read-out fell short of the control. As usually defined, the EC50 is the concentration needed to bring the measured effect to its halfway point. Turning to `CS(=O)(=O)Nc1ccc(Cl)cc1C(=O)N1CCCC[C@H]1c1cc2nc(N3CCC3)cc(N3CCC(N)CC3)n2n1` [Compound 233], the inhibition at 0.5 µM under setting [1] was 100%. The EC50 under setting [2] was 0.1 to 100 nM.
Taken in the same sequence, the figures for `Cc1cn2nc([C@@H]3CCCCN3C(=O)c3ccccc3CO)cc2nc1N1CC[C@H](N)C1` [Compound 291] were 88% and 0.1 to 100 nM.
Turning to `CS(=O)(=O)Nc1ccc(Br)cc1C(=O)N1CCCC[C@H]1c1cc2nc(N3CC(O)C3)cc(N3CCOCC3)n2n1` [Compound 80], under setting [1], the inhibition at 0.5 µM is 100%. In addition, the EC50 under setting [2] fell in the range of 0.1 to 100 nM.
Taken in the same sequence, the figures for `Cc1cn2nc([C@@H]3CCCCN3C(=O)c3ccnc(Cl)c3F)cc2nc1N1CC[C@H](N)C1` [Compound 352] were 100% and 0.1 to 100 nM.
For `Cc1cn2nc([C@@H]3CCCCN3C(=O)c3cc(-c4ccccc4)on3)cc2nc1N1CC[C@H](N)C1` [Compound 383], in that order: 99% and 0.1 to 100 nM.
For the compound `Cc1cc(C(=O)N2CCCC[C@H]2c2cc3nc(N4CC[C@H](N)C4)c(C)cn3n2)c(Cl)nn1` [Compound 341], the inhibition at 0.5 µM under setting [1] was 75%. Under setting [2], the EC50 was 0.1 to 100 nM.
For `Cc1cn2nc([C@@H]3CCCCN3C(=O)c3cc(Cl)ccc3NS(C)(=O)=O)cc2nc1N1CCN=C1N` [Compound 146], in that order: 99% and 0.1 to 100 nM.
For `Cc1cc(C)n2nc(C(=O)N3CCCCC3c3cc4nc(N5CC[C@H](N)C5)c(C)cn4n3)nc2n1` (stereo partly shown) [Compound 397], in that order: 3% and 1000 to 10000 nM.
For `Cc1cn2nc([C@@H]3CCCCN3C(=O)c3cc(-c4cccnc4)n[nH]3)cc2nc1N1CC[C@H](N)C1` [Compound 384], in that order: 48% and 101 to 1000 nM.
As to `Cc1ccc(NS(C)(=O)=O)c(C(=O)N2CCCC[C@H]2c2cc3nc(C)c(C)c(C#N)n3n2)c1` [Compound 103], the inhibition at 0.5 µM under setting [1] was 98%. Besides, the EC50 under setting [2] lay in the range of 0.1 to 100 nM.
Taken in the same sequence, the figures for `Cc1[nH]c2cc([C@@H]3CCCCN3C(=O)c3cc(F)cc(Cl)c3NS(C)(=O)=O)nn2c(=O)c1C` [Compound 127] were 99% and 0.1 to 100 nM.
For `Cc1cc(C2CC2)nc2cc([C@@H]3CCCCN3C(=O)C(NC(=O)OC(C)(C)C)c3ccccc3Br)nn12` (stereo partly shown) [Compound 237], in that order: 99% and 0.1 to 100 nM.
For `Cc1ccn2c(F)c(C(=O)N3CCCC[C@H]3c3cc4nc(N5CC[C@H](N)C5)c(C)cn4n3)nc2c1` [Compound 403], in that order: 100% and 0.1 to 100 nM.
Take `Cc1cc(C(=O)N2CCCC[C@H]2c2cc3nc(N4CC[C@H](N)C4)c(C)cn3n2)no1` [Compound 264]: under setting [1], the inhibition at 0.5 µM was 53%. Also, the EC50 under setting [2] is 101 to 1000 nM.
Taken in the same sequence, the figures for `Cc1ccc(C)c(C(=O)N2CCCC[C@H]2c2cc3nc(N4CC[C@H](N)C4)c(C)cn3n2)c1` [Compound 161] were 100% and 0.1 to 100 nM.
`CN(C)CCN(C)c1cc(N2CCC2)nc2cc([C@@H]3CCCCN3C(=O)c3cc(Cl)ccc3NS(C)(=O)=O)nn12` [Compound 175]: the inhibition at 0.5 µM under setting [1] was 100%. Moreover, under setting [2], the EC50 lay within 0.1 to 100 nM.
For `Cc1cn2nc([C@@H]3CC[C@H](C)CN3C(=O)c3cc(Cl)ccc3NS(C)(=O)=O)cc2nc1N1CC(N)C1` [Compound 137], in that order: 100% and 0.1 to 100 nM.
For `Cc1ccc(NS(C)(=O)=O)c(C(=O)N2CCCC[C@H]2c2cc3nc(C)c(C)c(N4CCCCC4)n3n2)c1` [Compound 236], in that order: 98% and 0.1 to 100 nM.
Taken in the same sequence, the figures for `CS(=O)(=O)Nc1ccc(Cl)cc1C(=O)N1CCCC[C@H]1c1cc2nc(N3CCC3)cc(N3CC[C@H](N)C3)n2n1` [Compound 227] were 100% and 0.1 to 100 nM.
Regarding `Cc1[nH]c2cc([C@@H]3C[C@H](C)CCN3C(=O)c3cc(F)ccc3NS(C)(=O)=O)nn2c(=O)c1C` [Compound 21], under setting [1], the inhibition at 0.5 µM was 4% and the inhibition at 1 µM was 10%. Also, the EC50 under setting [2] lay in the range of 1000 to 10000 nM.
For the compound `Cc1cn2nc([C@@H]3CCCCN3C(=O)c3cnn(C)c3C)cc2nc1N1CC[C@H](N)C1` [Compound 279], the inhibition at 0.5 µM under setting [1] was 63%. For the same compound, the EC50 under setting [2] is 101 to 1000 nM.
Taken in the same sequence, the figures for `COc1ccsc1C(=O)N1CCCC[C@H]1c1cc2nc(N3CC[C@H](N)C3)c(C)cn2n1` [Compound 308] were 100% and 0.1 to 100 nM.
For `Cc1cn2nc([C@@H]3CCCCN3C(=O)c3ccc4[nH]c(C)c(C)c4c3)cc2nc1N1CC[C@H](N)C1` [Compound 386], in that order: 97% and 0.1 to 100 nM.
In the case of `Cc1ccc(NS(C)(=O)=O)c(C(=O)N2CCCC(C)C2c2cc3[nH]c(C)c(C)c(=O)n3n2)c1` (stereo not shown) [Compound 30], the EC50 (RSV-induced cytopathic effects) was 101 to 1000 nM. Also, the inhibition at 0.5 µM under setting [1] was 99%.
In the case of `COc1ccc(Cl)c(C(=O)N2CCCC[C@H]2c2cc3nc(N4CC[C@H](N)C4)c(C)cn3n2)c1` [Compound 374], under setting [1], the inhibition at 0.5 µM was 100%. For the same compound, the EC50 under setting [2] lay within 0.1 to 100 nM.
For `Cc1cn2nc([C@@H]3CCCCN3C(=O)c3cnccn3)cc2nc1N1CC[C@H](N)C1` [Compound 260], in that order: 99% and 0.1 to 100 nM.
Take `Cc1cn2nc([C@@H]3CCCCN3C(=O)c3cc(Cl)ccc3NS(C)(=O)=O)cc2nc1N1CCCN1` [Compound 140]: under setting [1], the inhibition at 0.5 µM is 100%. Moreover, the EC50 under setting [2] lay in the range of 0.1 to 100 nM.
For `COC(=O)NC(C(=O)N1CCCC[C@H]1c1cc2nc(C3CC3)cc(C)n2n1)c1ccccc1` (stereo partly shown) [Compound 118], the inhibition at 0.5 µM under setting [1] was 99%. Besides, the EC50 under setting [2] was in the range of 0.1 to 100 nM.
On to `CCc1c(C)[nH]c2cc([C@@H]3CCCCN3C(=O)c3cc(F)ccc3NS(C)(=O)=O)nn2c1=O` [Compound 28], for which, under setting [1], the inhibition at 0.5 µM is 73% and the inhibition at 1 µM is 95%. For the same compound, under setting [2], the EC50 fell in the range of 101 to 1000 nM.
On to `Cc1cn2nc([C@@H]3CCCCN3C(=O)c3cc(Cl)ccc3NS(C)(=O)=O)cc2nc1N[C@H](C)CO` [Compound 149], for which the inhibition at 0.5 µM under setting [1] was 98%. The EC50 under setting [2] is 0.1 to 100 nM.
In the case of `Cc1cn2nc([C@@H]3CCCCN3C(=O)c3cc(C)c(F)c(C)c3)cc2nc1N1CC[C@H](N)C1` [Compound 326], the inhibition at 0.5 µM under setting [1] was 100%. For the same compound, the EC50 under setting [2] fell in the range of 0.1 to 100 nM.
On to `CNC(=O)c1cc(C(=O)N2CCCC[C@H]2c2cc3nc(N4CC[C@H](N)C4)c(C)cn3n2)n(C)n1` [Compound 371], for which, under setting [1], the inhibition at 0.5 µM was 100%. The EC50 under setting [2] is 0.1 to 100 nM.
For `Cc1cn2nc([C@@H]3CCCCN3C(=O)c3[nH]c4ccc(F)cc4c3C)cc2nc1N1CC[C@H](N)C1` [Compound 398], in that order: 99% and 0.1 to 100 nM.
Turning to `CC(=O)Nc1c(Cl)cc(C)cc1C(=O)N1CCCC[C@H]1c1cc2nc(C)c(C)c(N(C)C)n2n1` [Compound 246], the inhibition at 0.5 µM under setting [1] is 98%. Further, the EC50 under setting [2] fell in the range of 0.1 to 100 nM.
Taken in the same sequence, the figures for `Cc1cn2nc([C@@H]3CCCCN3C(=O)c3ccc(Cl)c(O)c3)cc2nc1N1CC[C@H](N)C1` [Compound 340] were 100% and 0.1 to 100 nM.
For `Cc1cn2nc([C@@H]3CCCCN3C(=O)c3cncs3)cc2nc1N1CC[C@H](N)C1` [Compound 269], in that order: 90% and 0.1 to 100 nM.
Take `Cc1cn2nc([C@@H]3CCCCN3C(=O)c3cc(CC(C)C)nn3C)cc2nc1N1CC[C@H](N)C1` [Compound 368]: the inhibition at 0.5 µM under setting [1] was 58%. Besides, the EC50 under setting [2] was 101 to 1000 nM.
For `CCn1nc(C(=O)N2CCCC[C@H]2c2cc3nc(N4CC[C@H](N)C4)c(C)cn3n2)cc1C` [Compound 301], in that order: 100% and 0.1 to 100 nM.
Consider `CCc1ccc(C(=O)N2CCCC[C@H]2c2cc3nc(N4CC[C@H](N)C4)c(C)cn3n2)s1` [Compound 304], for which, under setting [1], the inhibition at 0.5 µM is 100%. Further, the EC50 under setting [2] lay within 0.1 to 100 nM.
For `CS(=O)(=O)Nc1ccc(Cl)cc1C(=O)N1CCCC[C@H]1c1cc2nc(N3CC(O)C3)cc(N3CCC(O)CC3)n2n1` [Compound 81], in that order: 100% and 0.1 to 100 nM.
For `Cc1ccc(NS(C)(=O)=O)c(C(=O)N2CCCC[C@H]2c2cc3nc(C)c(C)c(N(C)C)n3n2)c1` [Compound 101], in that order: 100% and 0.1 to 100 nM.
For the compound `Cc1[nH]c2cc([C@@H]3COCCN3C(=O)c3ccccc3NS(C)(=O)=O)nn2c(=O)c1C` [Compound 20, N-{2-[3-(5,6-Dimethyl-7-oxo-4,7-dihydro-pyrazolo[1,5-a]pyrimidin-2-yl)-morpholine-4-carbonyl]-phenyl}-methanesulfonamide], under setting [1], the inhibition at 0.5 µM is 7% and the inhibition at 1 µM was 53%. Under setting [2], the EC50 fell in the range of 1000 to 10000 nM.
Turning to `COc1cc(F)ccc1C(=O)N1CCCC[C@H]1c1cc2nc(N3CC[C@H](N)C3)c(C)cn2n1` [Compound 330], the inhibition at 0.5 µM under setting [1] was 68%. Moreover, the EC50 under setting [2] lay within 101 to 1000 nM.
Taken in the same sequence, the figures for `COc1c(C)cccc1C(=O)N1CCCC[C@H]1c1cc2nc(N3CC[C@H](N)C3)c(C)cn2n1` [Compound 320] were 100% and 0.1 to 100 nM.
Taken in the same sequence, the figures for `CS(=O)(=O)Nc1ccc(Cl)cc1C(=O)N1CCCC[C@H]1c1cc2nc(N3CCC3)cc(N3CCNC(C(F)(F)F)C3)n2n1` (stereo partly shown) [Compound 159] were 100% and 0.1 to 100 nM.
For `Cc1cn2nc([C@@H]3CCCCN3C(=O)c3cc(-c4ccco4)n[nH]3)cc2nc1N1CC[C@H](N)C1` [Compound 360], in that order: 66% and 101 to 1000 nM.
Turning to `Cc1cn2nc([C@@H]3CCCCN3C(=O)c3cc4c(s3)CCCC4)cc2nc1N1CC[C@H](N)C1` [Compound 370], the inhibition at 0.5 µM under setting [1] is 99%. Moreover, under setting [2], the EC50 lay in the range of 0.1 to 100 nM.
